Laboratory results reported in patent publication US7666393B2, “Methods for assessing antiangiogenic agents” (Children's Medical Center Corporation, priority 2001, dated 2010).

What was measured:
CAM vascularization = conditions: in vivo; cited from earlier work
EPC [1] = assay: VEGF-induced mobilization of EPC in mice (PBMNC colonies from peripheral blood); format: in vivo
Description: PBMNC from 1 ml of peripheral mouse blood were plated in medium containing bFGF and VEGF (FIG. 2A). […] Similar results were obtained with peripheral blood from mice, which were injected with microencapsulated cells producing endostatin (approximately 0.5×10^6 cells per mice) (Joki et al., 2001) (FIG. 2D). In order to elevate the number of EPC in the blood, the mice received injection of 0.5×10^6 cells producing VEGF, that were micro-encapsulated similar to the endostatin producing cells (FIGS. 2B-C).
PBMNC from VEGF injected mice were further analyzed by immunostaining in order to confirm their identity. Blood-derived cells were stained positively for VEGF-R2 (Flk-1), CD-31, BS-1 (a lectin specifically expressed on mouse EC) and for von-Wilerband factor (F.VIII). Only a few cells were stained positively for CD-14, a marker for macrophages. […] Furthermore, this in vivo effect of endostatin can be seen only if the starting number of EPC in the blood is high as a result of the VEGF treatment.

EPC [2] = assay: EPC in peripheral blood of cancer patients undergoing endostatin treatment (P1H12-positive cells); format: in vivo, human; conditions: for percentage of EPC: about 240 mg/m^3 daily
Description: Recombinant human Endostatin (rhEndostatin, Endostatin™ EntreMed, Inc, Rockville, Md.) is under investigation in clinical Phase I trials in patients with advanced, refractory cancers. Twenty eight patients, age ranging from 28 to 72 years old with various types of cancer such as breast, colorectal and soft tissue sarcoma, participated in a phase I clinical trial at the Dana Farber Cancer Institute in Boston. We obtained blood samples from 7 patients that were treated with endostatin. The response of EPC to rhEndostatin differed between patients in accordance with differing clinical courses. The first group consisted of 4 patients with slowly progressive, stable or decreasing cancers that were followed with samples for 130-250 days (FIG. 6A). The second group consisted of patients with faster progressing cancer unaffected by rhEndostatin administration. This group was followed during 30 days of endostatin treatment (FIG. 6B). PBMNC were purified from the blood over “Ficoll” gradient and cells corresponding to 0.5 or 1 ml of blood were placed in a “Cytospin” tube. The cells were loaded onto glass slides, fixed and immuno-stained with FITC-conjugated P1H12 antibodies. Cell nuclei were stained with DAPI. The number of P1H12-positive cells was calculated as percentage of total PBMNC. EPC percentage varied among patients and was between 1.8-3.5%. […] Patients from the first group were initially administered with daily intravenous injections of 60 mg/m^3 endostatin. […] The administration of endostatin was later changed to continuous infusion (60 mg/m^3/day).
The second group of patients were at the beginning of endostatin treatment (daily IVB injections of about to 240 mg/m^3). The initial amount of EPC in this group varied between 0.4-1.6%. […] In these patients only 2-3 measurements of EPC were available because of rapid disease progression. […] On the other hand, minor response or stable disease progression upon endostatin administration was associated with reduction in the number EPC in peripheral blood, whereas an increase in EPC was associated with rapid disease progression.

EPC [3] = assay: Tumor-induced mobilization of EPC in SCID mice bearing HS-VF tumors; format: in vivo; conditions: 7 days
Description: Many tumors secrete high levels of VEGF that can promote differentiation and mobilization of EPC. To test the effects of endostatin on tumor-induced mobilization of EPC, SCID mice (5 per group) were first injected subcutaneously with human pancreatic tumor cells (HS-VF cell, 2×10^6 cells/mouse) overexpressing VEGF. Eight days later half of the mice were implanted with “Alzet” osmotic pumps releasing murine endostatin (8-12 mg/kg/day) and the other half with pumps releasing saline. SCID mice that were not injected with tumor cells or pumps (normal SCID mice) served as a control to measure the number of EPC. After seven days, mice were sacrificed and blood samples were collected.
PBMNC were purified over “Ficoll” gradient and cells corresponding to 0.5 ml of blood were placed in a “Cytospin” tube. The cells were loaded onto glass slides, fixed and immunostained with MECA-32 antibodies, that specifically detect murine EC. The staining was developed with FITC-labeled (green) secondary antibodies and cell nuclei were stained with DAPI (blue). The proportion of MECA-32 positive cells from total PBMNC was calculated and shown in the graph of FIG. 4A.
Control mice had 0.29% MECA-32 positive cells in the PBMNC preparation. […]

[4] = test system: Human peripheral blood mononuclear cells (PBMNC); assay: In vitro formation of colonies from human peripheral blood mononuclear cells (EPC differentiation assay); format: cell-based; conditions: medium with bFGF and VEGF, 6 days culture after addition
Description: Human peripheral blood mononuclear cells (PBMNC) were purified over Ficoll gradient and seeded onto non-treated plastic dish for 24 hr. Non. adherent cells were, transferred to a gelatin coated 48 well dish in medium containing basic fibroblast growth factor (BFGF) and VEGF. Angiostatin and endostatin were added to the medium 24 hours later and cells were cultured for additional 6 days. At the end of the experiment the colonies were fixed with ethanol, stained with methyl-methylene blue and counted (FIGS. 1A-C). […] There was no difference in the effects of angiostatin between the two concentrations used. […] Taken together, it appears that angiostatin and endostatin block the differentiation of EC from their circulating progenitors.

Q: Which results are given for endostatin?
A: CAM vascularization (CAM vascularization): greatly inhibit; colonies from PBMNC of 1 ml peripheral mouse blood (EPC [1]; mice injected with microencapsulated cells producing endostatin only (approx. 0.5×10^6 cells per mouse), 7 days in culture): no viable cell-containing colonies could be detected; colonies from PBMNC of peripheral mouse blood (EPC [1]; mice received VEGF producing cells together with endostatin producing cells (0.5×10^6 alginate encapsulated cells of each)): only a few, small and round cell-containing colonies; number of EPC (P1H12-positive cells, percentage of total PBMNC) (EPC [2]; one patient of the first group, continuous infusion 60 mg/m^3/day, 130 days): not increased; percentage of EPC (EPC [2]; patient 13, faster progressing cancer, increased from 0.4% during 15 days of administration): 3.8%; percentage of EPC (EPC [2]; patient #11, faster progressing cancer, increased from 1.6% during 30 days of administration): 5.3%; EPC percentage (EPC [2]; patient #12, faster progressing cancer, daily IVB injections of about 240 mg/m^3, first 15 days): did not change significantly; number of EPC (P1H12-positive cells, percentage of total PBMNC) (EPC [2]; patients #1, #2 and #3, continuous infusion 60 mg/m^3/day): further lowered; number of EPC (P1H12-positive cells, percentage of total PBMNC) (EPC [2]; patients #2 and #3, slowly progressing cancer, daily intravenous injections of 60 mg/m^3): gradually decreased; proportion of MECA-32 positive cells from total PBMNC (EPC [3]; Alzet pumps releasing murine endostatin 8-12 mg/kg/day, saline pumps approx. 2.5%, control mice 0.29%): 0.67%; gated Flk-1 positive cells in the peripheral blood (FACS) (EPC [3]; pumps releasing murine endostatin 8-12 mg/kg/day, saline 0.625+/−0.19%, normal mice 0.22+/−0.04%): 0.305+/−0.05%; formation of PBMNC colonies ([4]; 2 μg/ml): the number of colonies grew but the colonies were small and contained small round cells; formation of PBMNC colonies ([4]; 10 μg/ml): significantly lower than the control experiment

Q: For `CO[C@@H]1[C@H](OC(=O)NC(=O)CCl)CC[C@]2(CO2)[C@H]1[C@@]1(C)O[C@@H]1CC=C(C)C` [TNP-470, reference compound], which CAM vascularization (CAM vascularization) is on record?
A: The CAM vascularization was “greatly inhibit”.

Q: With “vascular endothelial growth factor [VEGF, reference compound]” as the compound, how does the “colonies from PBMNC of peripheral mouse blood” value (EPC [1]; mice injected with 0.5×10^6 microencapsulated cells producing VEGF) read?
A: Its value is “Large number of colonies”.

Q: Which CAM vascularization (CAM vascularization) does the source give for angiostatin here?
A: Its CAM vascularization is “greatly inhibit”.

Q: And the “formation of PBMNC colonies” value ([4]; 2 μg/ml)?
A: Its value is “completely blocked”.

Q: And the “formation of PBMNC colonies” value ([4]; 10 μg/ml)?
A: Its value is “completely blocked”.
